Measurements from patent US20100040544A1, “METHOD FOR MANAGING PATIENTS WITH CANCER” (priority 2006, published 2010).

Assay: T1 relaxation in human full blood
Format: physicochemical
Conditions: in human full blood at 37° C.

Question: With `CC(=O)[13C](=O)O` [^13C1-pyruvate] as the molecule, how does the T1 relaxation read?
Answer: about 42 s
